Experimental data reported in patent US20170273922A1, “UREA AND BIS-UREA BASED COMPOUNDS AND ANALOGUES THEREOF USEFUL IN THE TREATMENT OF ANDROGEN RECEPTOR MEDIATED DISEASES OR DISORDERS” (THE ROYAL INSTITUTION FOR THE ADVACEMENT OF LEARNING/MCGILL …, priority 2014, published 2017).

Legend:
Format in all cases: cell-based
LNCaP cells = assay: MTT assay (cytotoxicity), LNCaP cells; conditions: 72 h, Table 2.2
Method: (§1) MTT assays: LNCaP, 22Rv1, Du145, H1975, A549, MB231 and MCF-7 cells are maintained in RPMI 1640 supplemented with 10% FBS. Cells were seeded at a density of 6-7×10^3 cells per well in 96-well plates. After overnight incubation, cells in fresh RPMI 1640 supplemented with 10% FBS were exposed to DMSO vehicle control or test compounds at designated concentrations for 72 h. Viable cells were evaluated by MTT assays. Experiments were performed in triplicate and repeated at least twice.

DU145 cells = assay: MTT assay (cytotoxicity), DU145 cells; conditions: 72 h, Table 2.2
Method: as §1

[1] = MTT assay (cytotoxicity), LNCaP cells; conditions: human, LNCaP cells
Method: as §1

[2] = MTT assay (cytotoxicity), 22Rv1 cells; conditions: human, 22Rv1 cells
Method: as §1

| SMILES | IC50 at 72 h ([1]; 72 h treatment, Table 6.1) | IC50 at 72 h ([2]; 72 h treatment, Table 6.1) | also measured |
| --- | --- | --- | --- |
| O=C(N/C=C/c1cccc(C(F)(F)F)c1)Nc1cccc(C(F)(F)F)c1 [Compound 403] | – | – | IC50 (LNCaP cells): 12.3 µM; IC50 (DU145 cells): > 20 µM |
| O=C(N/C=C/c1ccccc1C(F)(F)F)Nc1ccc([N+](=O)[O-])c(C(F)(F)F)c1 [Compound 404] | – | – | IC50 (LNCaP cells): 9.3 µM; IC50 (DU145 cells): 16.4 µM |
| N#Cc1ccc(NC(=O)N/C=C/c2ccccc2C(F)(F)F)cc1 [Compound 405] | – | – | IC50 (LNCaP cells): 3.4 µM; IC50 (DU145 cells): 8.3 µM |
| O=C(N/C=C/c1ccccc1C(F)(F)F)Nc1cccc(C(F)(F)F)c1 [Compound 406] | – | – | IC50 (LNCaP cells): 14.4 µM |
| O=C(N/C=C/c1ccc(C(F)(F)F)cc1)Nc1ccc([N+](=O)[O-])c(C(F)(F)F)c1 [Compound 407] | – | – | IC50 (LNCaP cells): 9.6 µM; IC50 (DU145 cells): 15.3 µM |
| O=C(N/C=C/c1ccc(C(F)(F)F)cc1)Nc1cccc(C(F)(F)F)c1 [Compound 408] | – | – | IC50 (LNCaP cells): 15.6 µM |
| O=C(N/C=C/c1cccc(C(F)(F)F)c1)Nc1ccccc1 [Compound 413] | – | – | IC50 (LNCaP cells): > 20 µM |
| COc1cccc(NC(=O)N/C=C/c2cccs2)c1 [Compound 425] | – | – | IC50 at 72 h ([1]; 72 h, Table 2.4): > 20 µM |
| O=C(N/C=C/c1cccs1)Nc1ccc2c(c1)OCO2 [Compound 426] | – | – | IC50 at 72 h ([1]; 72 h, Table 2.4): > 20 µM |
| O=C(N/C=C/c1c[nH]cn1)Nc1ccc([N+](=O)[O-])c(C(F)(F)F)c1 [Compound 454] | – | – | IC50 at 72 h ([1]; 72 h, Table 2.4): > 10 µM |
| O=C(N/C=C/c1cccc(C(F)(F)F)c1)NCc1cccc(C(F)(F)F)c1 [Compound 460] | – | – | IC50 at 72 h ([1]; 72 h, Table 2.4): 7.9 µM |
| O=C(N/C=C/c1cc(C(F)(F)F)cc(C(F)(F)F)c1)Nc1ccc2[nH]ccc2c1 [Compound 516] | – | – | IC50 at 72 h ([1]; 72 h, Table 2.3): > 10 µM; IC50 at 72 h ([2]; 72 h, Table 2.3): > 10 µM |
| O=C(Nc1cc(N2CCOCC2)cc(C(F)(F)F)c1)Nc1ccc(NC(=O)c2ccccc2F)c(C(F)(F)F)c1 [Compound 861] | 9.7 µM | – | – |
| CN1CCN(c2cc(NC(=O)Nc3ccc(NC(=O)c4ccccc4F)c(C(F)(F)F)c3)cc(C(F)(F)F)c2)CC1 [Compound 862] | 3.4 µM | – | – |
| O=C(N/C=C/c1cccc(OC(F)(F)F)c1)Nc1ccncn1 [Compound 875] | 4.6 µM | 8.8 µM | – |
| O=C(Nc1cc(F)cc(C(F)(F)F)c1)Nc1ccc(NC(=O)c2ccccc2F)c(C(F)(F)F)c1 [Compound 878] | 3.4 µM | 3.2 µM | – |
| O=C(Nc1cccc(C(F)(F)F)c1)Nc1ccc(NC(=O)c2ccc(N3CCOCC3)cc2F)c(C(F)(F)F)c1 [Compound 879] | 6.3 µM | 6.8 µM | – |
| O=C(Nc1ccc(NC(=O)c2ccccc2F)c(C(F)(F)F)c1)Nc1ccccc1C(F)(F)F [Compound 896] | 5.2 µM | 18.9 µM | – |
| O=C(Nc1ccc(C(F)(F)F)cc1)Nc1ccc(NC(=O)c2ccccc2F)c(C(F)(F)F)c1 [Compound 897] | 1.9 µM | 7 µM | – |
| O=C(Nc1cccc(C(F)(F)F)c1)Nc1ccc(NC(=O)Nc2ccc(F)cc2)c(C(F)(F)F)c1 [Compound 898] | 1.4 µM | 5.1 µM | – |
| O=C(Nc1cccc(C(F)(F)F)c1)Nc1ccc(NC(=O)c2c(F)cccc2F)c(C(F)(F)F)c1 [Compound 900] | > 10 µM | 10.4 µM | – |

| SMILES | IC50 at 72 h ([1]; 72 h treatment, Table 6.1) | IC50 at 72 h ([2]; 72 h treatment, Table 6.1) | also measured |
| --- | --- | --- | --- |
| O=C(Nc1cccc(C(F)(F)F)c1)Nc1ccc(NC(=O)c2cc(F)ccc2F)c(C(F)(F)F)c1 [Compound 901] | 6.6 µM | 4.7 µM | – |
| O=C(Nc1cccc(C(F)(F)F)c1)Nc1ccc(NC(=O)c2ccc(F)cc2F)c(C(F)(F)F)c1 [Compound 902] | 7.4 µM | 4.5 µM | – |
| O=C(Nc1cccc(C(F)(F)F)c1)Nc1ccc(NC(=O)c2cc(C(F)(F)F)ccc2F)c(C(F)(F)F)c1 [Compound 903] | 6.8 µM | 5 µM | – |
| O=C(Nc1cccc(C(F)(F)F)c1)Nc1ccc(C(=O)Nc2ccc(F)cc2)c(C(F)(F)F)c1 [Compound 904] | 4.1 µM | 3.2 µM | – |
| O=C(Nc1cccc(C(F)(F)F)c1)Nc1ccc(NC(=O)Nc2cccc(F)c2)c(C(F)(F)F)c1 [Compound 905] | 5.5 µM | 11.4 µM | – |
| O=C(Nc1cccc(C(F)(F)F)c1)Nc1ccc(NC(=O)c2cc(Cl)ccc2F)c(C(F)(F)F)c1 [Compound 907] | 4.2 µM | 4.2 µM | – |
| O=C(Nc1cccc(C(F)(F)F)c1)Nc1ccc(NC(=O)c2cccnc2F)c(C(F)(F)F)c1 [Compound 911] | 13.8 µM | 10 µM | – |
| O=C(Nc1cccc(C(F)F)c1)Nc1ccc(NC(=O)c2ccccc2F)c(C(F)(F)F)c1 [Compound 912] | 11.6 µM | 16 µM | – |
| O=C(Nc1cccc(C(F)(F)F)c1)Nc1ccc(F)c(NC(=O)c2c(F)cccc2F)c1 [Compound 913] | 12.3 µM | 14.2 µM | – |
| O=C(Nc1cccc(NC(=O)c2cccc(F)c2)c1)Nc1cccc(C(F)(F)F)c1 [Compound 914] | 7.3 µM | 8.7 µM | – |
| O=C(Nc1cccc(NC(=O)c2ccc(F)cc2)c1)Nc1cccc(C(F)(F)F)c1 [Compound 915] | 9 µM | 10.6 µM | – |
| O=C(Nc1cccc(C(F)(F)F)c1)Nc1cc(NC(=O)c2ccccc2F)cc(C(F)(F)F)c1 [Compound 928] | 2.4 µM | 2 µM | – |
| O=C(Nc1cccc(C(F)(F)F)c1)Nc1ccc(F)c(NC(=O)c2cc(Cl)ccc2F)c1 [Compound 929] | 5.5 µM | 5.7 µM | – |
| O=C(Nc1cccc(C(F)F)c1)Nc1ccc(NC(=O)c2cc(F)ccc2F)c(C(F)(F)F)c1 [Compound 930] | 8.2 µM | 5.6 µM | – |
| N#Cc1ccc(NC(=O)NCC(=O)c2cccc(C(F)(F)F)c2)cc1C(F)(F)F [Compound 937] | – | – | IC50 at 72 h ([1]; 72 h, Table 2.4): 7.3 µM |
| O=C(Nc1cccc(C(F)F)c1)Nc1ccc(NC(=O)c2cc(C(F)(F)F)ccc2F)c(C(F)(F)F)c1 [Compound 941] | 5.4 µM | 3.6 µM | – |
| O=C(Nc1cccc(C(F)(F)F)c1)Nc1ccc(F)c(NC(=O)c2cc(F)ccc2F)c1 [Compound 942] | 5.7 µM | 7.1 µM | – |
| O=C(Nc1cccc(C(F)(F)F)c1)Nc1ccc(F)c(NC(=O)c2ccc(F)cc2F)c1 [Compound 943] | 6.3 µM | 13 µM | – |
| O=C(Nc1cccc(C(F)(F)F)c1)Nc1ccc(F)c(NC(=O)c2cc(C(F)(F)F)ccc2F)c1 [Compound 944] | 5.5 µM | 4.5 µM | – |
| O=C(Nc1cccc(C(F)F)c1)Nc1ccc(NC(=O)c2ccc(F)cc2F)c(C(F)(F)F)c1 [Compound 945] | 7.3 µM | 7.1 µM | – |
| O=C(Nc1cccc(C(F)(F)F)c1)Nc1ccc(F)c(NC(=O)c2cccc(F)c2)c1 [Compound 946] | 8.4 µM | 9.5 µM | – |

| SMILES | IC50 at 72 h ([1]; 72 h treatment, Table 6.1) | IC50 at 72 h ([2]; 72 h treatment, Table 6.1) | also measured |
| --- | --- | --- | --- |
| O=C(Nc1cccc(C(F)(F)F)c1)Nc1ccc(F)c(NC(=O)c2ccc(F)cc2)c1 [Compound 947] | 12.7 µM | 15.9 µM | – |
| O=C(Nc1cccc(C(F)(F)F)c1)Nc1ccc(F)c(NC(=O)c2cccc(F)c2F)c1 [Compound 948] | 8 µM | 17.1 µM | – |
| O=C(Nc1cccc(C(F)(F)F)c1)Nc1cc(C(=O)O)cc(C(F)(F)F)c1 [Compound 949] | 2.9 µM | 32.9 µM | – |
| O=C(Nc1cccc(C(F)(F)F)c1)Nc1ccc(F)c(NC(=O)Nc2ccccc2F)c1 [Compound 950] | 3.8 µM | 7.8 µM | – |
| O=C(Nc1cccc(C(F)(F)F)c1)Nc1ccc(F)c(NC(=O)c2cc(I)ccc2F)c1 [Compound 951] | 4 µM | 9.8 µM | – |
| O=C(Nc1cccc(C(F)(F)F)c1)Nc1ccc(NC(=O)c2cc(I)ccc2F)c(C(F)(F)F)c1 [Compound 952] | 5.2 µM | 7.8 µM | – |
| O=C(Nc1cccc(C(F)(F)F)c1)Nc1cc(NC(=O)Nc2cccc(C(F)(F)F)c2)cc(C(F)(F)F)c1 [Compound 953] | 1.4 µM | 0.9 µM | – |
| O=C(Nc1ccc(C(F)(F)F)cc1)Nc1cc(NC(=O)Nc2ccc(C(F)(F)F)cc2)cc(C(F)(F)F)c1 [Compound 955] | 1.5 µM | 0.9 µM | – |
| O=C(Nc1ccc(C(F)(F)F)cc1)Nc1ccc(F)c(NC(=O)c2ccc(F)cc2F)c1 [Compound 956] | 3.5 µM | 9.5 µM | – |
| O=C(Nc1ccc(F)c(NC(=O)c2cc(C(F)(F)F)ccc2F)c1)Nc1ccccc1C(F)(F)F [Compound 959] | 13.5 µM | 8.7 µM | – |
| O=C(Nc1ccc(F)c(NC(=O)c2ccc(F)cc2F)c1)Nc1ccccc1C(F)(F)F [Compound 960] | – | 5.7 µM | – |
| O=C(Nc1cccc(C(F)(F)F)c1)Nc1ccc(F)cc1NC(=O)c1ccc(F)cc1F [Compound 961] | 6.2 µM | 10.1 µM | – |
| O=C(Nc1ccc(Br)cc1)Nc1cc(F)ccc1NC(=O)c1ccc(F)cc1F [Compound 962] | 5.3 µM | 4.9 µM | – |
| O=C(Nc1ccc(Br)cc1)Nc1ccc(F)c(NC(=O)c2cc(C(F)(F)F)ccc2F)c1 [Compound 963] | 2.4 µM | 4.7 µM | – |
| O=C(Nc1cccc(F)c1)Nc1cc(NC(=O)Nc2cccc(F)c2)cc(C(F)(F)F)c1 [Compound 964] | 2.4 µM | 1.8 µM | – |
| O=C(Nc1cccc(F)c1)Nc1cc(F)ccc1NC(=O)c1ccc(F)cc1F [Compound 965] | 4.3 µM | 7.7 µM | – |
| O=C(Nc1cccc(NC(=O)Nc2cccc(C(F)(F)F)c2)c1)Nc1cccc(C(F)(F)F)c1 [Compound 966] | – | 6.6 µM | – |
| O=C(Nc1cccc(C(F)(F)F)c1)Nc1ccccc1NC(=O)Nc1cccc(C(F)(F)F)c1 [Compound 967] | 2.7 µM | 3.1 µM | – |
| N#Cc1ccc(NC(=O)NCC(=O)c2ccc(F)cc2)cc1C(F)(F)F [Compound 982] | – | – | IC50 at 72 h ([1]; 72 h, Table 2.4): 4.6 µM |
